Experimental data: patent publication US10039844B2, “Imaging tumor glycolysis by non-invasive measurement of pyruvate kinase M2” (The Board of Trustees of the Leland Stanford Junior …, priority 2014, dated 2018)

How the values were obtained:
[1] = tested on: PKM2 in orthotopic GBM39 PDX tumors; assay: PET imaging of orthotopic GBM39 PDX tumors at baseline and after TEPP-46 blocking; type: in vivo, mouse
Description: (§1) In vivo Tumor Models: For subcutaneous tumor models, U87 tumor cells (5×10^6 cells; 100 μL PBS) were injected subcutaneously on the back of female BALB/c nude mice (aged 6-8 weeks; Charles River Laboratories) and grown to approximately 150 mm^3. Tumor dimensions were measured periodically using a caliper (by the same experienced researcher), with tumor volumes calculated by the equation: volume=(π/6)×a×b×c, where a, b, and c represent three orthogonal axes of the tumor. For orthotopic brain tumor models, 2×10^5 U87 cells were implanted 0.5 mm anterior and 2 mm to the right of the bregma in the brains of 6-8 week-old nude mice, held in place using a stereotactic unit. The cells, suspended in 4 μL PBS, were injected at a depth of 3 mm over 5 min with an AS blunt-ended Hamilton syringe, which was subsequently held in place for a further 5 min. Animals were anaesthetized with an i.p. injection of 150 mg/kg ketamine, 15 mg/kg xylazine. Mice were subsequently imaged by MRI and PET 32-35 days post intracranial injection and GBM39 tumor-bearing mice were imaged between 44-50 days after implantation.
(§2) PET imaging scans were carried out on a docked Siemens Inveon PET/CT scanner (matrix size, 128×128×159; CT attenuation-corrected; non-scatter corrected), following a bolus i.v. injection of approximately 18.5 MBq of [^11C]DASA-23 into tumor-bearing mice. Dynamic scans were acquired in list mode format over 60 min. The acquired data were then sorted into 0.5-mm sinogram bins and 19 time frames for image reconstruction (4×15 s, 4×60 s and 11×300 s), which was done by iterative reconstruction using the following parameters: 3D ordered-subsets expectation maximization (3D-OSEM) followed by fast maximum a posteriori (fastMAP); MAP OSEM interations, 2; MAP subsets, 16; MAP iterations, 18.
(§3) The count densities were averaged for all volumes of interest at each time point to obtain a time versus radioactivity curve (TAC). Tumor and tissue TACs were normalized to injected dose, measured by a CRC-15 PET dose calibrator (Capintec, Inc.), and expressed as percentage injected dose per milliliter of tissue (% ID/mL). The area under the TAC, calculated as the integral of % ID/mL from 0 to 60 min, and the normalized uptake of radiotracer at 60 min (% ID/mL60) were also used for comparisons. Siemens Inveon Research Workplace software (v.4.0) was used for visualization of radiotracer uptake in the tumor, to define the three-dimensional (3D) volumes of interest (VOI) and for 3D-visualization to create volume rendering technique (VRT) images.

HeLa cells = assay: Cell uptake and efflux of radiotracer in HeLa cells; type: cell-based, human
Description: (§4) Cell Uptake and Efflux Studies: U87 and HeLa cells (2×10^5) were plated into 6-well plates overnight before [^11C]DASA-23 uptake analysis. On the day of the experiment, fresh, pre-warmed DMEM containing 0.925 MBq of [^11C]DASA-23 was added to individual wells (1 mL/well, 9.25±4.63 pmol).
(§5) Cells were incubated with [^11C]DASA-23 at 37° C. and 5% CO2 over a 60 min time course. At the respective time points, plates were placed on ice, washed 3 times with ice-cold phosphate-buffered saline (PBS), and lysed in radioimmunoprecipitation assay buffer (Thermo Fisher Scientific Inc.; 500 μL). 300 μL cell lysates were transferred to counting tubes and decay-corrected radioactivity was determined on a y counter (Cobra II Auto-Gamma counter; Packard Biosciences Co.). The remaining lysate was frozen and used following radioactive decay for protein determination using a bicinchoninic acid (BCA) 96-well plate assay (Thermo Fisher Scientific Inc.) and for immunoblotting. In addition, 10 μL standards from the 0.925 MBq/mL solution added to cells were counted to quantitate percentage radiotracer uptake. For efflux studies, cells were incubated with radiotracer for 60 min, washed 3 times with room temperature (RT) Hank's Buffered Salt Solution (HBSS) before subsequent incubation at 37° C. in fresh, radiotracer-free, DMEM. At allotted times, samples were processed.

U87 human glioma cells = assay: Cell uptake and efflux of radiotracer in U87 cells; type: cell-based
Description: as §4, §5

[2] = tested on: subcutaneous U87 human glioma xenografts; assay: PET/CT and ex vivo biodistribution in mice bearing subcutaneous U87 xenografts; design: species or system mouse
Description: as §1, §2, §3
Ex vivo Biodistribution: After the PET imaging studies, 60 min post radiotracer administration, mice were sacrificed by exsanguination via cardiac puncture and tissues harvested. Tissue radioactivity for all organs was subsequently determined on a gamma counter (decay-corrected; Cobra II Auto-Gamma counter, Packard Biosciences Co, Pangbourne, UK). Ten-microliter standards from the stock activity were also counted for data normalization. Data were expressed as percent injected dose per gram of tissue (% ID/g).

[3] = Ex vivo mouse plasma stability; type: in vitro ADME; settings: after 60 min, 37° C.
Description: Plasma Stability: [^11C]DASA-23 stability in mouse plasma was assessed ex vivo according to previously described methodology (James et al., (2012) J. Med. Chem. 55: 8272-8282, incorporated herein by reference in its entirety.
Samples were incubated for 10 min, 30 min, and 60 min and compared to a standard from the respective injected probe.

[4] = tested on: orthotopic U87 human gliomas; assay: PET imaging of orthotopic U87 tumors in mice; type: in vivo, mouse; settings: 30 min after injection
Description: as §1, with “Animals were anaesthetized with an i.p. injection of 150 mg/kg ketamine, 15 mg/kg xylazine. Mice were subsequently imaged by MRI and PET 32-35 days post intracranial injection and GBM39 tumor-bearing mice were imaged between 44-50 days after implantation.” left out
as §3, with “Siemens Inveon Research Workplace software (v.4.0) was used for visualization of radiotracer uptake in the tumor, to define the three-dimensional (3D) volumes of interest (VOI) and for 3D-visualization to create volume rendering technique (VRT) images.” left out

PKM2 [5] = biological target: T1, PKM2 (Homo sapiens, UniProt P14618); settings: versus PKM1, PKR and PKL; cited from earlier work
Target sequence in this assay (P14618 whole entry, species assumed): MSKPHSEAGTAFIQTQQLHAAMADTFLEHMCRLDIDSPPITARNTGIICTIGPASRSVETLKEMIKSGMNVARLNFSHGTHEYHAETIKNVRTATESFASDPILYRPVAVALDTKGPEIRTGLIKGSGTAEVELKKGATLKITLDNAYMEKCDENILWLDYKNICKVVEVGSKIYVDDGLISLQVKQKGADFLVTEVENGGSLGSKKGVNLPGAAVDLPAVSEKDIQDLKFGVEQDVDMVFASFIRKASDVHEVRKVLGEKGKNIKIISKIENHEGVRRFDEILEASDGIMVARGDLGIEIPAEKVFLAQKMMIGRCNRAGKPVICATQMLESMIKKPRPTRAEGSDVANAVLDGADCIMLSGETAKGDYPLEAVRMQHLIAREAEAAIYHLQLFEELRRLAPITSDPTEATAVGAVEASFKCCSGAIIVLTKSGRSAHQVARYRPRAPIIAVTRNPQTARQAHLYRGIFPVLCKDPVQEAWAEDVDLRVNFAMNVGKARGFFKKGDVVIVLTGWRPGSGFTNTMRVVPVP

PKM2 [6] = biological target: T1, PKM2; assay: Radiotracer uptake after PKM2 siRNA knockdown in HeLa cells; type: cell-based; design: endogenous in cells; host or cells: HeLa
Description: PKM2 siRNA: Time course PKM2 knockdown in HeLa cells was assessed over 72 h post-transfection. Cells were seeded in 6-well plates in antibiotic-free DMEM at 1.5×10^6 cells/well 24 h prior to siRNA transfection with DharmaFECT1 (Thermo Scientific), according to the manufacturer's instruction. Specific siRNA targeting only PKM2 were custom made by Thermo Scientific using the following sequences: […] (sense) (SEQ ID NO: 1), […] (antisense) (SEQ ID NO: 2). Scrambled siRNA (siCtrl; Cell Signaling Technology) was used as a control. siRNA were added at a final concentration of 25 nM. [^11C]DASA-23 uptake (0.925 MBq/mL) was measured after 30 min in cells transfected with siCtrl and siPKM2 at 24 h, 48 h and 72 h post transfection, and processed as described in Example 4, above. Untreated cells were used as a further control, measured 24 h post addition of fresh DMEM and 96 h post seeding.
Western Blotting: Monoclonal rabbit antibody to PKM1 and PKM2 (1:1000 dilution, Cell Signaling Technology) were used in a standard western blotting protocol. A rabbit anti-actin antibody (Sigma-Aldrich Co. Ltd; 1:2000) was used as a loading control. Blots were scanned and signal quantification was performed using ImageJ (National Institutes of Health).
Target sequence in this assay (P14618 2-531 limits assumed): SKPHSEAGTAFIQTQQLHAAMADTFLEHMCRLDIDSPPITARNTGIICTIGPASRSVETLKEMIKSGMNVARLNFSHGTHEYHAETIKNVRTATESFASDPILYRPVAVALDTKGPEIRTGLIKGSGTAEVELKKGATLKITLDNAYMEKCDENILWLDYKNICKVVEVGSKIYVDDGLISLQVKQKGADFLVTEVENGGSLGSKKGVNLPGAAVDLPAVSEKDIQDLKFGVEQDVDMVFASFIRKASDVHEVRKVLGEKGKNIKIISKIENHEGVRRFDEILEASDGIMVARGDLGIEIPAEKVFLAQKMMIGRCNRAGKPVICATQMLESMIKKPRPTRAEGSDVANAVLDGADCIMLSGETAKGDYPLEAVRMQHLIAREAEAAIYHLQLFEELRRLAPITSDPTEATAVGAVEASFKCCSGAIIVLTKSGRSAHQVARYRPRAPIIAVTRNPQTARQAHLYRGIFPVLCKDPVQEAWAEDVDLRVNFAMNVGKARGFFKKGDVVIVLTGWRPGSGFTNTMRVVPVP

[7] = 30 min post removal of exogenous radiotracer

Cn1c2cc([S+](C)[O-])sc2c2cnn(Cc3cccc(N)c3)c(=O)c21 (centres unmarked) [TEPP-46, 6-((3-Aminophenyl)methyl)-4-methyl-2-methylsulfinylthieno[3,4]pyrrolo[1,3-d]pyridazin-5-one, reference compound]
decrease of tumor-associated [^11C]DASA-23 retention ([1]; TEPP-46 50 mg/kg i.p., 1 hour before radiotracer): 42%
effect on [^11C]DASA-23 tumor signal ([1]; one hour after TEPP-46 injection): complete ablation of tumor signal to background levels

[11CH3]Oc1ccc(S(=O)(=O)N2CCN(S(=O)(=O)c3c(F)cccc3F)CC2)cc1 [[^11C]DASA-23, 1-((2,6-difluorophenyl)sulfon-yl)-4-((4-(methoxy-^11C)phenyl)sulfonyl)piperazine]
initial intracellular radioactivity retained (HeLa cells; [7]): about 40%
cellular uptake (HeLa cells; by 30 min): 14.9±2.0 %radioactivity/mg protein
initial intracellular radioactivity retained (U87 human glioma cells; [7]): about 40%
cellular uptake (U87 human glioma cells; by 30 min): 19.6±2.0 % radioactivity/mg protein
uptake ratio of U87 tumor to blood ([2]; 60 min post injection): 1.1
uptake ratio of U87 tumor to brain ([2]; 60 min post injection): 2.1
uptake ratio of U87 tumor to muscle ([2]; 60 min post injection): 1.6
time of peak brain uptake ([2]; dynamic PET, normal brain, after injection): 30 s
time to reach background levels in brain ([2]; dynamic PET, post injection): ≤ 10 min
time of peak tumor uptake ([2]; dynamic PET, subcutaneous U87 tumor): 10 min
accumulation in the brain ([2]; ex vivo biodistribution): did not accumulate in the brain
U87 tumor uptake ([2]; ex vivo biodistribution, 60 min post injection): 1.78±0.23 % of the injected dose (ID)/g
parent remaining in plasma [3]: > 96%
radioactivity in the contralateral background tissue [4]: 0.78±0.18 % ID/g
radioactivity in the tumor ([4]; orthotopic U87 tumor): 1.68±0.47 % ID/g
tumor-associated retention at baseline ([1]; GBM39 tumor, 30 min after radiotracer injection): 1.61±0.25 % ID/g
tumor-associated retention after TEPP-46 ([1]; GBM39 tumor, 30 min after radiotracer injection, 1 hour after TEPP-46 50 mg/kg i.p.): 0.93±0.10 % ID/g
uptake in control, contralateral healthy brain ([1]; GBM39 tumor-bearing mice): 0.79±0.18 % ID/g
selectivity of activation versus other pyruvate kinase isozymes (PKM2 [5]): selective activation of PKM2
reduction in uptake in siPKM2 cells versus control siRNA (PKM2 [6]; 24 h post transfection): 16.5%
uptake in siPKM2 cells as % of siCtrl cells (PKM2 [6]; 72 h post transfection): 44.5%
